Test results taken from patent publication US10344046B2, “Nucleotide and oligonucleotide prodrugs” (priority 2005, dated 2019).
“Also recorded” adds a separate entry of the source. Read-outs that look alike come from different tables or passages of the source.

How the values were obtained:
[1] = assay type: in vitro ADME
Description: However, the challenge in the case of nucleotides and dinucleotides is that they contain highly acid-labile purine and pyrimidine moieties in their structures. Thus, although masking the negative charge of these molecules might aid in their cellular diffusion by increased lipohilicity, it is not known whether they will be stable in gastric mucosa long enough to be absorbed orally. […] Such degradative process is known to occur by initial protonation of nitrogen of the nucleobase followed by depurination and cleavage of the sugar ring.
(§1) The stability of prodrugs in simulated gastric fluid (SGF) and simulated intestine fluid (SIF) at 37° C. were examined. SGF and SIF were prepared following reported procedures and prodrugs were incubated separately with SGF and SIF for 1 h at 37° C., processed, and analyzed using reverse-phase HPLC.

[2] = Stability in simulated intestine fluid (SIF); assay type: in vitro ADME; details: 1 h at 37° C.
Method: as §1

[3] = Pharmacokinetic study in woodchuck, intravenous; assay type: in vivo
Description: (§2) This is in contrast to traditional antiviral nucleosides, which require metabolic activation and conversion to triphosphate derivatives for their action.

[4] = Metabolism in vitro with human liver microsomes; assay type: in vitro ADME
Description: (§3) This would support the hypothesis that the antiviral activity of 3-dApsU2′-OMe and other di-, and tri-nucleotides is due to the intact nucleotide structure and not due to its metabolites. This is in contrast to traditional antiviral nucleosides, which require metabolic activation and conversion to triphosphate derivatives for their action.
as §2

[5] = Metabolism in vitro with mouse liver microsomes; assay type: in vitro ADME
Description: as §3

[6] = tested on: HBV; details: Iyer et al., Antimicrob. Agents and Chemotherapy, 48, 2318-2320, 2004; cited from earlier work
[7] = Bioreversibility (hydrolytic conversion to parent dinucleotide 5) in rabbit serum, HPLC; details: for t1/2 (min) in serum: rabbit; for time for almost complete conversion to 3′dApsU2′-OMe on serum treatment: rabbit serum, 37° C.
Method: (§4) Evaluation of bioreversibility of the pronucleotides was carried out in rabbit serum in phosphate buffer at 37° C. In order to monitor the hydrolytic conversion of the pronucleotides to the dinucleotide 5, aliquots of incubate were removed at different time points, processed, and analyzed using reversed-phase HPLC.
Bioreversibility studies were carried out as follows: A stock solution of each analog was prepared by dissolving 2 mg in 100 μL of DMSO. 10 μL aliquots were diluted with 90 μL of phosphate buffer (0.1 M, pH 7.0) and 100 μL aliquots of rabbit serum. The mixture was incubated at 37° C. in a water bath. Aliquots were removed at different time points and diluted with 200 μL of methanol to stop the reaction. The incubate was then centrifuged, supernatant concentrated in a speed vac and diluted with 200 μL of 0.1 M ammonium acetate buffer prior to injection into HPLC. Reversed-phase HPLC analysis was carried out using a Waters Instrument equipped with a 600Egradient controller, and a 996 photodiode array detector with Millennium software. X-terra MS C18 2.5 μm, 2.1×20 mm column and an operating gradient of 100% A to 80% B over 30 minutes of buffer A (0.1 M NH4OAc) and buffer B (80:20, CH3CN:NH4OAc) was employed. Retention time for prodrugs ranged from 16 to 18 minutes whereas that of the Rp,Sp dinucleotide 5 was 13.5, 13.8 minutes.

[8] = tested on: Vero; assay: Cytotoxicity assay, Vero cell line
Method: (§5) We next examined the cytotoxicity profile of the pronucleotide derivatives in different cell lines such as MDBK, Vero, and HFF.
(§6) Standard MTF assays were performed in 96-well plates using the Promega CellTiter96 Non-radioactive Cell Proliferation Assay Kit in conjunction with a 96-well Plate Reader (ThermoMax, Molecular devices), and using MDBK, Vero, and TIFF cell lines (obtained from ATCC). Several controls were employed including the nucleoside analogs 3TC, AZT, and ddC, as well as, media without drugs. SDS was used as a positive cytotoxic control. All pronucleotides were tested in triplicate at concentrations of 100, 300, and 1000 μM. Following a 24-hour incubation of cells with the test substance, the MTF assay was carried out.

[9] = tested on: MDBK; assay: Cytotoxicity assay, MDBK cell line
Method: as §5, §6

[10] = tested on: HFF; assay: Cytotoxicity assay, HFF cell line
Method: as §5, §6

[11] = pH 7.2
Method: as §4

[12] = tested on: pig liver esterase (PLE)
Method: as §4

[13] = molecular target: bovine chymotrypsin (Bos taurus, UniProt P00766)
[14] = tested on: human hepatitis B virus; assay type: in vivo, transgenic mice
[15] = Weight change and apparent toxicity in the HBV transgenic mouse study
Method: Male and female transgenic mice (founder 1.3.32) were infected with human hepatitis B virus. […] The positive control, ADV, was administered at 10 mg/kg/d. Statistical significance is indicated as *P≤0.05, **P≤0.01, ***P≤0.001 compared to placebo vehicle. Measurements of serum HBeAg, PEI are reported according to International Immuno Diagnostics standardized assay using Paul Ehrlich International Units (PEI U).

[16] = oral once daily for 14 days, 6a 400, 6k 300, ADV 10 mg/kg/d

Compound: COC1C(OP(=O)([S-])OCC2OC(n3cnc4c(N)ncnc43)CC2O)C(CO)OC1n1ccc(=O)[nH]c1=O.[Na+] (mixture of isomers) [3-dApsU2′-OMe]
- time of decomposing in SGF ([1]; SGF, 37° C.): about 15 min
- half-life in simulated gastric fluid ([1]; simulated gastric fluid): less than 10 minutes
- stability in SIF [2]: relatively stable
- elimination in the urine ([3]; IV): mostly intact material
- plasma half-life ([3]; intravenous (IV) administration): about 1 h
- significant metabolism in vitro [4]: do not occur; also recorded: absence of significant metabolism
- significant metabolism in vitro [5]: do not occur
- anti-HBV activity in the transgenic mouse model [6]: excellent anti-HBV activity

Compound: COC1C(OP(=O)(OCC2OC(n3cnc4c(N)ncnc43)CC2O)SCc2ccc(OC(=O)C(C)C)cc2)C(CO)OC1n1ccc(=O)[nH]c1=O (mixture of isomers) [Compound 6b]
- time for complete conversion to the parent 5 [7]: ~3 h
- CC50 [8]: > 1000 µM
- CC50 [9]: > 1000 µM
- CC50 [10]: > 1 mM
- time stable in phosphate buffer [11]: up to 24 h
- hydrolytic action of pig liver esterase (PLE) [12]: resistant
- hydrolytic action of bovine chymotrypsin [13]: resistant

Compound: COC1C(OP(=O)(OCC2OC(n3cnc4c(N)ncnc43)CC2O)SCc2ccc(NC(C)=O)cc2)C(CO)OC1n1ccc(=O)[nH]c1=O (mixture of isomers) [Compound 6d]
- CC50 [8]: > 1000 µM
- CC50 [9]: > 1000 µM
- CC50 [10]: > 1 mM

Compound: COC1C(OP(=O)(OCC2OC(n3cnc4c(N)ncnc43)CC2O)SCCCCOC(C)=O)C(CO)OC1n1ccc(=O)[nH]c1=O (mixture of isomers) [Compound 6e]
- t1/2 (min) in serum [7]: >60^@ min
- CC50 ([8]; read-out: CC50(μM) Vero, Table 4, 24-hour incubation): > 1000 µM
- CC50 ([9]; read-out: CC50(μM) MDBK, Table 4, 24-hour incubation): > 1000 µM

Compound: COC1C(OP(=O)(OCC2OC(n3cnc4c(N)ncnc43)CC2O)SCCCCOC(=O)c2ccccc2)C(CO)OC1n1ccc(=O)[nH]c1=O (mixture of isomers) [Compound 6f]
- t1/2 (min) in serum [7]: >120^@ min
- CC50 [8]: > 1000 µM
- CC50 [9]: > 1000 µM

Compound: COC1C(OP(=O)(OCC2OC(n3cnc4c(N)ncnc43)CC2O)SCCCCOC(=O)c2cccnc2)C(CO)OC1n1ccc(=O)[nH]c1=O (mixture of isomers) [Compound 6g]
- t1/2 (min) in serum [7]: >120^@ min
- CC50 [8]: > 1000 µM
- CC50 [9]: > 1000 µM
- CC50 [10]: > 1 mM

Compound: COC1C(OP(=O)(OCC2OC(n3cnc4c(N)ncnc43)CC2O)SCCCCNC(=O)c2ccccc2)C(CO)OC1n1ccc(=O)[nH]c1=O (mixture of isomers) [Compound 6i]
- CC50 [8]: > 1000 µM
- CC50 [9]: > 1000 µM

Compound: COC1C(OP(=O)(OCC2OC(n3cnc4c(N)ncnc43)CC2O)SCCCCNC(=O)c2cccnc2)C(CO)OC1n1ccc(=O)[nH]c1=O (mixture of isomers) [Compound 6j]
- CC50 [8]: > 1000 µM
- CC50 [9]: > 1000 µM
- CC50 [10]: > 1 mM

Compound: COC1C(OP(=O)(OCC2OC(n3cnc4c(N)ncnc43)CC2O)SCOC(=O)OCC(C)C)C(CO)OC1n1ccc(=O)[nH]c1=O (mixture of isomers) [Compound 6s]
- Cytotoxicity assay (um) Vero [8]: >1000 um
- Cytotoxicity assay (um) MDBK [9]: >1000 um
- Cytotoxicity assay (um) HFF [10]: >1000 um

Compound: COC1C(OP(=O)(OCC2OC(n3cnc4c(N)ncnc43)CC2O)SCOC(=O)OC(C)(C)C)C(CO)OC1n1ccc(=O)[nH]c1=O (mixture of isomers) [Compound 6t]
- Cytotoxicity assay (um) Vero [8]: >1000 um
- Cytotoxicity assay (um) MDBK [9]: >1000 um
- Cytotoxicity assay (um) HFF [10]: >1000 um

Compound: CCCCOCCOC(=O)OCSP(=O)(OCC1OC(n2cnc3c(N)ncnc32)CC1O)OC1C(CO)OC(n2ccc(=O)[nH]c2=O)C1OC (mixture of isomers) [Compound 6u]
- Cytotoxicity assay (um) Vero [8]: >1000 um
- Cytotoxicity assay (um) MDBK [9]: >300 um
- Cytotoxicity assay (um) HFF [10]: >1000 um

Compound: CC(C)(C)C(=O)OCOP(=O)(COCCn1cnc2c(N)ncnc21)OCOC(=O)C(C)(C)C [ADV, adefovir dipivoxil, reference compound]
- Liver HBV RNA (log transcripts ± sd) ([14]; mouse, in vivo): 10.5 ± 0.4 log transcripts
- QPCR Liver HBV DNA (pg/μg mean ± sd) ([14]; mouse, in vivo): 1.7 ± 1.1 pg/µg
- Serum HBeAg, PEI U/mL (mean ± sd) ([14]; mouse, in vivo): 59 ± 9.7 PEI U/mL
- Serum HBsAg (signal/cutoff units ± sd) ([14]; mouse, in vivo): 73 ± 52 signal/cutoff units
- Southern blot Liver HBV DNA (pg/μg mean ± sd) ([14]; mouse, in vivo): 0.9 ± 1.1 pg/µg

Compound: CO[C@H]1C(OP(=O)(OC[C@H]2O[C@@H](n3cnc4c(N)ncnc43)CC2O)SCOC(=O)OC(C)C)[C@@H](CO)O[C@H]1n1ccc(=O)[nH]c1=O (some centres unmarked) [Compound 6k, S-isopropylcarbonyloxymethyl Thiophosphate Derivative 6k of 3′dApsU2′OMe]
- time for almost complete conversion to 3′dApsU2′-OMe on serum treatment [7]: ~3 h
- Cytotoxicity assay (um) Vero ([8]; Table 5, 24-hour incubation): >1000 um
- Cytotoxicity assay (um) MDBK ([9]; Table 5, 24-hour incubation): >1000 um
- Cytotoxicity assay (um) HFF ([10]; Table 5, 24-hour incubation): >1000 um
- Liver HBV RNA (log transcripts ± sd) [14, 16]: 10.8 ± 0.4 log transcripts
- QPCR Liver HBV DNA (pg/μg mean ± sd) [14, 16]: 13.3 ± 12 pg/µg
- Serum HBeAg, PEI U/mL (mean ± sd) [14, 16]: 67 ± 0.6 PEI U/mL
- Serum HBsAg (signal/cutoff units ± sd) [14, 16]: 55 ± 59 signal/cutoff units
- Southern blot Liver HBV DNA (pg/μg mean ± sd) [14, 16]: 5.7 ± 3.2 pg/µg
- apparent toxicity at the high doses employed ([15]; 400 mg/kg/d (6a), 300 mg/kg/d (6k), oral, 14 days): no apparent toxicity
- % weight change ± sd [15, 16]: 4.3 ± 1.8%

Compound: CO[C@H]1C(OP(=O)(OC[C@H]2O[C@@H](n3cnc4c(N)ncnc43)CC2O)SCOC(=O)CCC(C)C2CCC3C4CCC5CC(O)CCC5(C)C4CC(O)C23C)[C@@H](CO)O[C@H]1n1ccc(=O)[nH]c1=O (some centres unmarked) [Compound 6l]
- Cytotoxicity assay (um) Vero ([8]; Table 5, 24-hour incubation): >1000 um
- Cytotoxicity assay (um) MDBK ([9]; Table 5, 24-hour incubation): >1000 um
- Cytotoxicity assay (um) HFF ([10]; Table 5, 24-hour incubation): >1000 um

Compound: CO[C@H]1C(OP(=O)(OC[C@H]2O[C@@H](n3cnc4c(N)ncnc43)CC2O)SCOC(=O)C(Cc2ccccc2)NC(=O)OC(C)(C)C)[C@@H](CO)O[C@H]1n1ccc(=O)[nH]c1=O (stereo partly drawn) [Compound 6m, N-(t-butoxycarbonyl)-L-phenylalaninate Analog 6m of 3′dApsU2′OMe]
- time for almost complete conversion to 3′dApsU2′-OMe on serum treatment [7]: ~3 h
- Cytotoxicity assay (um) Vero ([8]; Table 5, 24-hour incubation): >1000 um
- Cytotoxicity assay (um) MDBK ([9]; Table 5, 24-hour incubation): >1000 um
- Cytotoxicity assay (um) HFF ([10]; Table 5, 24-hour incubation): >1000 um
